# Experimental data taken from US12152038B2, “Vasopressin receptor antagonists and products and methods related thereto” (Neumora Therapeutics, Inc., priority 2017, dated 2024).
# Biological target: T1, human Arginine Vasopressin Receptor 1b (AVPR1b) (Homo sapiens, UniProt P47901)
# T1 construct: expressed in transfected cells; host or cells: CHO (CHO-AVPR1b, kept under G418 selection)
# T1 sequence (P47901 1-424): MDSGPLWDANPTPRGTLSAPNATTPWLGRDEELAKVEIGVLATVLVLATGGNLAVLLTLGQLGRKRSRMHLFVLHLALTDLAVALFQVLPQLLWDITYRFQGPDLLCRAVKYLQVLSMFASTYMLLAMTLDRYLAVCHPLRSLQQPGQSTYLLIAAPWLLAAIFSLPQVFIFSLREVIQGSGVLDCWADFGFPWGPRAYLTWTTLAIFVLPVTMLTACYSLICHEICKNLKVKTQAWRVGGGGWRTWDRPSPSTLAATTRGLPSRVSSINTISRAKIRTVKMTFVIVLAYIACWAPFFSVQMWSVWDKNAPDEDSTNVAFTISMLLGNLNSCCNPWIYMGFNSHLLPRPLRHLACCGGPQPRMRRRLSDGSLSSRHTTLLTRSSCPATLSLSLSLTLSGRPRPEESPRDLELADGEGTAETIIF
# Assay: Vasopressin V1b receptor antagonist assay (FLIPR calcium, CHO-AVPR1b cells)
# Type: cell-based
# How it was run: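 CHO cells expressing human AVPR1b, loaded with Calcium-6 dye, were given compound (10-point, 1:3) for 15 min at 37 °C. Then AVP was added at its daily-determined EC80 in HBSS/HEPES. FLIPR fluorescence read for 3 min; antagonism seen as reduced AVP calcium response.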
row,IC50 [µM],SMILES
1,≥ 1,"CCC1COc2cc(Cl)ccc2N1C(=O)N1CC2(C1)CN(c1ccc(F)cn1)C2 (single isomer, unassigned) [1-55-B]"
2,≥ 1,"CC1COc2cc(Cl)ccc2N1C(=O)N1CC2(C1)CN(c1ncccc1F)C2 (single isomer, unassigned) [1-57-A]"
3,≥ 1,"CC1COc2cc(Cl)ccc2N1C(=O)N1CC2(C1)CN(c1cnccn1)C2 (single isomer, unassigned) [1-58-B]"
4,≥ 1,"COc1ccc2c(c1)OCC(C)N2C(=O)N1CC2(C1)CN(c1ccc(F)cn1)C2 (single isomer, unassigned) [1-59-B]"
5,≥ 1,"CC1COc2cc(Cl)ccc2N1C(=O)N1CC2(C1)CN(c1ccccn1)C2 (single isomer, unassigned) [1-60-B]"
6,≥ 1,"CC1COc2cc(F)ccc2N1C(=O)N1CC2(C1)CN(c1cnccn1)C2 (single isomer, unassigned) [1-65-B]"
7,≥ 1,"CC1COc2cc(F)ccc2N1C(=O)N1CC2(C1)CN(c1ccccn1)C2 (single isomer, unassigned) [1-66-B]"
8,≥ 1,"CC1COc2cc(F)ccc2N1C(=O)N1CC2(C1)CN(c1ncccc1F)C2 (single isomer, unassigned) [1-67-A]"
9,≥ 1,"CC1COc2cc(Cl)ccc2N1C(=O)N1CC2(C1)CN(c1ccc(F)cn1)C2 (single isomer, unassigned) [1-73-A]"
10,≥ 1,"CC1COc2cc(Cl)ccc2N1C(=O)N1CC2(C1)CN(c1ccc(F)cn1)C2 (single isomer, unassigned) [1-73-B]"
11,≥ 1,"O=C(N1CC2(C1)CN(c1ccc(F)cn1)C2)N1CCC(O)c2cc(Cl)ccc21 (single isomer, unassigned) [13-1-B]"
12,≥ 1,"CC1COc2cc(Cl)ccc2N1C(=O)N1CC2(C1)CN(c1ncc(F)cn1)C2 (single isomer, unassigned) [18-2-B]"
13,≥ 1,"Cc1cnc(N2CC3(CN(C(=O)N4c5ccc(Cl)cc5OCC4C)C3)C2)nc1 (single isomer, unassigned) [20-13-B]"
14,≥ 1,"CC1COc2cc(Cl)ccc2N1C(=O)N1CC2(C1)CN(c1cc(=O)n(C)cn1)C2 (single isomer, unassigned) [20-14-B]"
15,≥ 1,"CC1COc2cc(Cl)ccc2N1C(=O)N1CC2(C1)CN(c1nn(C)c3ncccc13)C2 (single isomer, unassigned) [20-15-B]"
16,≥ 1,Cc1cccc(N2CC3(CN(C(=O)N4CCOc5cc(Cl)ccc54)C3)C2)n1 [1-3]
17,≥ 1,O=C(N1CC2(C1)CN(c1cnc(F)cn1)C2)N1CCOc2cc(Cl)ccc21 [1-18]
18,≥ 1,Cc1cnc(N2CC3(CN(C(=O)N4CCOc5cc(Cl)ccc54)C3)C2)cn1 [1-20]
19,≥ 1,Cc1cncc(N2CC3(CN(C(=O)N4CCOc5cc(Cl)ccc54)C3)C2)n1 [1-22]
20,≥ 1,Cc1nc(N2CC3(CN(C(=O)N4CCOc5cc(Cl)ccc54)C3)C2)ccc1F [1-30]
21,≥ 1,N#Cc1cccc(N2CC3(CN(C(=O)N4CCOc5cc(Cl)ccc54)C3)C2)n1 [1-39]
22,≥ 1,COc1nccnc1N1CC2(CN(C(=O)N3CCOc4cc(Cl)ccc43)C2)C1 [1-43]

row,IC50 [µM],SMILES
1,≥ 1,Cc1cc(F)nc(N2CC3(CN(C(=O)N4CCOc5cc(Cl)ccc54)C3)C2)c1 [1-45]
2,≥ 1,O=C(N1CC2(C1)CN(c1ccc(F)c(F)n1)C2)N1CCOc2cc(Cl)ccc21 [1-49]
3,≥ 1,O=C(N1CC2(C1)CN(c1cc(F)cc(F)n1)C2)N1CCOc2cc(Cl)ccc21 [1-51]
4,≥ 1,N#Cc1ccnc(N2CC3(CN(C(=O)N4CCOc5cc(Cl)ccc54)C3)C2)c1 [1-53]
5,≥ 1,CC1COc2cc(Cl)ccc2N1C(=O)N1CC2(C1)CN(c1ccccn1)C2 (centres unmarked) [1-60]
6,≥ 1,O=C(N1CC2(C1)CN(c1ccc(F)cn1)C2)N1CCOc2cc(F)ccc21 [1-64]
7,≥ 1,CC1COc2cc(F)ccc2N1C(=O)N1CC2(C1)CN(c1ncccc1F)C2 (centres unmarked) [1-67]
8,≥ 1,COc1ccc(N2CC3(CN(C(=O)N4CCOc5cc(Cl)ccc54)C3)C2)nc1 [1-68]
9,≥ 1,O=C(N1CC2(C1)CN(c1cccc(F)n1)C2)N1CCOc2cc(Cl)ccc21 [1-69]
10,≥ 1,O=C(N1CC2(C1)CN(c1cc(F)ccn1)C2)N1CCOc2cc(Cl)ccc21 [1-70]
11,≥ 1,O=C(N1CC2(C1)CN(c1cccnn1)C2)N1CCOc2cc(Cl)ccc21 [1-71]
12,≥ 1,O=C(N1CC2(C1)CN(c1cccnc1)C2)N1CCOc2cc(Cl)ccc21 [1-72]
13,≥ 1,"CC1COc2cc(Cl)ccc2N1C(=O)N1CC2(C1)CN(c1noc3ccccc13)C2 (centres unmarked) [21-1, (6-(benzo[d]isoxazol-3-yl)-2,6-diazaspiro[3.3]heptan-2-yl)(7-chloro-3-methyl-2,3-dihydro-4H-benzo[b][1,4]oxazin-4-yl)methanone]"
14,≥ 1,CC1COc2cc(Cl)ccc2N1C(=O)N1CC2(C1)CN(c1ncccc1C#N)C2 (centres unmarked) [21-2]
15,≥ 1,Cc1cncc(N2CC3(CN(C(=O)N4c5ccc(Cl)cc5OCC4C)C3)C2)n1 (centres unmarked) [21-3]
16,≥ 1,Cc1cnnc(N2CC3(CN(C(=O)N4c5ccc(Cl)cc5OCC4C)C3)C2)c1 (centres unmarked) [21-4]
17,≥ 1,CC1COc2cc(Cl)ccc2N1C(=O)N1CC2(C1)CN(c1ncncc1F)C2 (centres unmarked) [21-5]
18,≥ 1,CC1COc2cc(Cl)ccc2N1C(=O)N1CC2(C1)CN(c1ccncn1)C2 (centres unmarked) [21-6]
19,≥ 1,Cc1nccc(N2CC3(CN(C(=O)N4c5ccc(Cl)cc5OCC4C)C3)C2)n1 (centres unmarked) [21-8]
20,≥ 1,CCc1cnc(N2CC3(CN(C(=O)N4c5ccc(Cl)cc5OCC4C)C3)C2)nc1 (centres unmarked) [21-9]
21,≥ 1,CC1COc2cc(Cl)ccc2N1C(=O)N1CC2(C1)CN(c1nccc(C(F)(F)F)n1)C2 (centres unmarked) [21-10]
22,≥ 1,Cc1cc(N2CC3(CN(C(=O)N4c5ccc(Cl)cc5OCC4C)C3)C2)ncn1 (centres unmarked) [21-11]
